From ChEMBL document CHEMBL5365398, “Structure-activity relationship study of central pyridine-derived TYK2 JH2 inhibitors: Optimization of the PK profile through C4' and C6 variations” (Bioorg Med Chem Lett, 2023)

Key:
in vitro [1] = settings: mouse, liver microsomes
in vitro [2] = settings: human, Caco-2
in vitro [3] = settings: human, liver microsomes
in vitro [4] = settings: rat, liver microsomes
in vivo [5] = settings: mouse, po, 10 mg/kg
in vivo [6] = settings: mouse, po, 10 mg/kg; remark: listed apart in the source
in vitro [7] = settings: mouse, liver microsomes; remark: listed apart in the source
in vitro [8] = settings: human, liver microsomes; remark: listed apart in the source
in vivo [9] = settings: mouse, po, 10 mg/kg; remark: listed apart in the source
in vitro [10] = settings: rat, liver microsomes; remark: listed apart in the source

[2H]C([2H])([2H])NC(=O)c1nnc(NC(=O)C2CC2)cc1Nc1nccc(-c2ncc(F)cn2)c1OC
remaining at 10 min, 0.5 µM (in vitro [1]): 100%
Papp A→B (in vitro [2]): 34.5 ×10⁻⁶ cm/s
remaining at 10 min, 0.5 µM (in vitro [3]): 89%
remaining at 10 min, 0.5 µM (in vitro [4]): 100%

[2H]C([2H])([2H])NC(=O)c1nnc(Nc2ccc(C(C)(C)O)cn2)cc1Nc1nccc(-c2ncc(F)cn2)c1OC
remaining at 10 min, 0.5 µM (in vitro [1]): 83%
AUC(0-t) (in vivo [5]): 34.2 µM·h
Papp A→B (in vitro [2]): 9.7 ×10⁻⁶ cm/s
remaining at 10 min, 0.5 µM (in vitro [3]): 100%
Cmax (in vivo [6]): 15.2 µM
half-life (in vitro [7]): > 2 h
half-life (in vitro [8]): > 2 h
bioavailability (in vivo [9]): 94%
remaining at 10 min, 0.5 µM (in vitro [4]): 100%
half-life (in vitro [10]): > 2 h

[2H]C([2H])([2H])NC(=O)c1nnc(Nc2cccc(OC)n2)cc1Nc1nccc(-c2ncn(C)n2)c1OC
remaining at 10 min, 0.5 µM (in vitro [1]): 65%
remaining at 10 min, 0.5 µM (in vitro [3]): 88%
remaining at 10 min, 0.5 µM (in vitro [4]): 71%
